The values below come from US20250268903A1, “RXFP1 AGONISTS” (BRISTOL-MYERS SQUIBB COMPANY, priority 2021, published 2025).

The assay deals with T1, human RXFP1 (Homo sapiens, UniProt Q9HBX9).
T1 construct: expressed in transfected cells
T1 sequence (Q9HBX9 1-757): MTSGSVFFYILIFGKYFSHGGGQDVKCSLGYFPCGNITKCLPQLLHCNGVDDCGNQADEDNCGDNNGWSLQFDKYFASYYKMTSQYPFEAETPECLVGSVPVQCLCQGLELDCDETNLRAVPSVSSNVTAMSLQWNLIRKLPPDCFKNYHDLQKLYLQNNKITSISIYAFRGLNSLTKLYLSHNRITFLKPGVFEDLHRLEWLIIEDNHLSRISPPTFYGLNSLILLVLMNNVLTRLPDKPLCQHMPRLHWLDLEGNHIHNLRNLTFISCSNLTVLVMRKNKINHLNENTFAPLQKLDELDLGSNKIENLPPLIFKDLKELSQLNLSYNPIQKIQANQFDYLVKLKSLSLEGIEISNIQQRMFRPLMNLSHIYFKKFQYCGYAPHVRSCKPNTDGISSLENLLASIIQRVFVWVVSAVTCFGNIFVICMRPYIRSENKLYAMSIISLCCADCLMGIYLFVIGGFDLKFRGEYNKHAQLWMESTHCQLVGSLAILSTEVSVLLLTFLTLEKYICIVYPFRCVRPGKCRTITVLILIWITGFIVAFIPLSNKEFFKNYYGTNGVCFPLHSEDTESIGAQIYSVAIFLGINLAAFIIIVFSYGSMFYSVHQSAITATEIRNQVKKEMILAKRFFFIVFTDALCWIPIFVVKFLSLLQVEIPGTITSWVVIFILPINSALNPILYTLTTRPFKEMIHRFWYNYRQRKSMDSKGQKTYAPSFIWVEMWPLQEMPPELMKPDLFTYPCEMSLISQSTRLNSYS
The experiment in a line: hRXFP1 HEK293 cAMP assay (HTRF). The assay is classed as cell-based. Particulars: HEK293 cells stably expressing human RXFP1, 30 min at room temperature. The method, boiled down:
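Potency and activity come from a four-parameter logistic fit of cAMP against compound concentration, tested from 0.010 nM up to 50 μM. The assay uses HEK293 cells stably expressing human RXFP1, incubated 30 min at ambient temperature with phosphodiesterase inhibitor IBMX present.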
Background: cAMP levels reflect the balance of adenylyl cyclase and phosphodiesterase activity.
For orientation: EC50 means the midpoint of the concentration-response curve. The low end stands for a more potent agent, the high end for a less potent agent. As for `COc1ccc(S(=O)(=O)N2CCN3C(=O)CCC3C2)cc1C(=O)N[C@H]1[C@@H](C(=O)Nc2ccc(F)c(C(F)(F)F)c2)[C@H]2CC[C@@H]1/C2=C\C1CC1` (stereo partly drawn) [Example 223, (1R,2S,3R,4R,7Z)-7-(cyclopropyl-methylidene)-N-[4-fluoro-3-(trifluoromethyl)phenyl]-3-[2-methoxy-5-({6-oxo-octahydropyrrolo[1,2-a]piperazin-2-yl}sulfonyl)benzamido] bicyclo[2.2.1] heptane-2-carboxamide], the EC50 amounted to 145 nM. The value for `COc1ccc(CCCNC(=O)C2CCC2)cc1C(=O)N[C@@H]1C2CCC(/C2=C/C(F)(F)F)[C@@H]1C(=O)Nc1ccc(F)c(C(F)(F)F)c1` (stereo partly drawn) [Example 112, (2S,3R,7Z)-3-{5-[3-(cyclobutylformami-do)propyl]-2-methoxybenzamido}-N-[4-fluoro-3-(trifluoromethyl)phe-nyl]-7-(2,2,2-trifluoroethylidene)bi-cyclo[2.2.1]heptane-2-carboxamide] was 324 nM; that for `COc1ccc(CCC(C)(C)O)cc1C(=O)N[C@@H]1C2CCC(/C2=C/C2CC2)[C@@H]1C(=O)Nc1ccc(F)c(C(F)(F)F)c1` (stereo partly drawn) [Example 90, (2S,3R,7Z)-7-(cyclopropylmethyli-dene)-N-[4-fluoro-3-(trifluoromethyl)phe-nyl]-3-[5-(3-hydroxy-3-methylbutyl)-2-methoxybenzamido] bicyclo[2.2.1]heptane-2-carboxamide] was 14 nM; that for `COc1ccc(C(=O)N2CC(O)C2)cc1C(=O)N[C@H]1[C@@H](C(=O)Nc2ccc(F)c(C(F)(F)F)c2)[C@H]2CC[C@@H]1/C2=C\C1CC1` [Example 251, (1R,2S,3R,4R,7Z)-7-(cyclopropylmethyl-idene)-N-[4-fluoro-3-(trifluoromethyl)phenyl]-3-[5-(3-hydroxyazetidine-1-carbonyl)-2-methoxybenzamido] bicyclo[2.2.1]heptane-2-carboxamide] was 44 nM. The value for `COc1ccc(C(=O)N2CCS(=O)(=O)CC2)cc1C(=O)N[C@H]1[C@@H](C(=O)Nc2ccc(F)c(C(F)(F)F)c2)[C@H]2CC[C@@H]1/C2=C\C1CC1` [Example 242, (1R,2S,3R,4R,7Z)-7-(cyclopropyl-methylidene)-3-[5-(1,1-dioxo-1λ.^6-thiomorpholine-4-carbonyl)-2-methoxybenzamido]-N-[4-fluoro-3-(trifluoromethyl)phenyl]bicyclo [2.2.1] heptane-2-carboxamide] was 261 nM; that for `COc1ccc(CN2CCOCC2)cc1C(=O)N[C@@H]1C2CCC(/C2=C/C(F)(F)F)[C@@H]1C(=O)Nc1ccc(F)c(C(F)(F)F)c1` (stereo partly drawn) [Example 13, (2S,3R,7Z)N-[4-fluoro-3-(trifluoromethyl)phe-nyl]-3-{2-methoxy-5-[(morpholin-4-yl)methyl]benzamido}-7-(2,2,2-trifluoroethylidene)bi-cyclo[2.2.1]heptane-2-carboxamide] was 625 nM.

`COC/C=C/c1ccc(OC)c(C(=O)N[C@@H]2C3CCC(C3=C(C)C)[C@@H]2C(=O)Nc2ccc(F)c(C(F)(F)F)c2)c1` (stereo partly drawn) [Example 31, (2S,3R)—N-[4-fluoro-3-(trifluoromethyl)phenyl]-3-{2-methoxy-5-[(1E)-3-methoxyprop-1-en-1-yl]benzamido}-7-(propan-2-ylidene) bicyclo[2.2.1]heptane-2-carboxamide] returned an EC50 of 180 nM. The value for `COc1ccc(C23CCC(C(C)(C)O)(CC2)CC3)cc1C(=O)N[C@H]1[C@@H](C(=O)Nc2ccc(F)c(C(F)(F)F)c2)[C@H]2CC[C@@H]1/C2=C\C1CC1` (single isomer, unassigned) [Example 276] was 2600 nM; that for `COc1ccc(C(=O)NCC(C)(C)O)cc1C(=O)N[C@H]1[C@@H](C(=O)Nc2ccc(F)c(C(F)(F)F)c2)[C@H]2CC[C@@H]1/C2=C\C1CC1` [Example 240, N3-[(1R,2R,3S,4R,7Z)-7-(cyclopropyl-methylidene)-3-{[4-fluoro-3-(trifluoromethyl)phenyl]carbamoyl}bicyclo[2.2.1]heptan-2-yl]-N1-(2-hydroxy-2-methylpropyl)-4-methoxybenzene-1,3-dicarboxamide] was 53.1 nM; that for `COc1c(F)cc(C(=O)N2CC3(CC(O)C3)C2)cc1C(=O)N[C@H]1[C@@H](C(=O)Nc2ccc(F)c(C(F)(F)F)c2)[C@H]2CC[C@@H]1/C2=C\C1CCCC1` [Example 371, (1R,2S,3R,4R,7Z)-7-(cyclopentyl-methylidene)-N-[4-fluoro-3-(trifluoromethyl)phenyl]-3-(3-fluoro-5-{6-hydroxy-2-azaspiro[3.3]heptane-2-carbonyl}-2-methoxybenzamido) bicyclo[2.2.1]heptane-2-carboxamide] was 2.8 nM. In the case of `COc1ccc(CC(C)CO)cc1C(=O)N[C@@H]1C2CCC(/C2=C/C(F)(F)F)[C@@H]1C(=O)Nc1ccc(F)c(C(F)(F)F)c1` (single isomer, unassigned) [Example 67], the concentration for a half-maximal effect (EC50) came out at 193 nM. The value for `COc1ccc(COC2=NOC3COCC23)cc1C(=O)N[C@H]1[C@@H](C(=O)Nc2ccc(F)c(C(F)(F)F)c2)[C@H]2CC[C@@H]1/C2=C\C1CC1` (stereo partly drawn) [Example 300, (1R,2S,3R,4R,7Z)-3-[5-({3aH,4H,6H,6aH-furo[3,4-d][1,2]oxazol-3-yloxy}methyl)-2-methoxybenzamido]-7-(cyclopropylmethylidene)-N-[4-fluoro-3-(trifluoromethyl)phenyl]bicyclo[2.2.1] heptane-2-carboxamide] was 206 nM; that for `COc1ccc(C2CCCC(O)C2)cc1C(=O)N[C@@H]1C2CCC(/C2=C/C(F)(F)F)[C@@H]1C(=O)Nc1ccc(F)c(C(F)(F)F)c1` (single isomer, unassigned) [Example 38] was 250 nM; that for `CCCC/C=C1\C2CCC1[C@H](C(=O)Nc1ccc(F)c(C(F)(F)F)c1)[C@@H]2NC(=O)c1cc(CCC(C)(C)O)ccc1OC` (stereo partly drawn) [Example 89, (2S,3R,7Z)-N-[4-fluoro-3-(trifluoromethyl)phe-nyl]-3-[5-(3-hydroxy-3-methylbutyl)-2-methoxybenzamido]-7-pentylidenebicyclo [2.2.1]heptane-2-carboxamide] was 45 nM. The value for `COc1ccc(CCCCCC#N)cc1C(=O)NC1C2CCC(/C2=C/C2CCC2)[C@@H]1C(=O)Nc1ccc(F)c(C(F)(F)F)c1` (some centres unmarked) [Example 190, (7Z)-3-[5-(5-cyanopentyl)-2-methoxybenzamido]-7-(cyclobutylmethyli-dene)-N-[4-fluoro-3-(trifluoromethyl)phe-nyl]bicyclo[2.2.1]hept-ane-2-carboxamide] was 23 nM; that for `COc1ccc(COC2C[C@@H](O)[C@@H](O)C2)cc1C(=O)N[C@H]1[C@@H](C(=O)Nc2ccc(F)c(C(F)(F)F)c2)[C@H]2CC[C@@H]1/C2=C\C1CC1` (stereo partly drawn) [Example 297, (1R,2S,3R,4R,7Z)-7-(cyclopropylmethylidene)-3-[5-({[(3R,4S)-3,4-dihydroxycyclopentyl]oxy}methyl)-2-methoxybenzamido]-N-[4-fluoro-3-(trifluoromethyl)phenyl]bicyclo[2.2.1]heptane-2-carboxamide] was 8.3 nM. Turning to `COc1ccc(C2CC(C(=O)N3CCC(O)CC3)C2)cc1C(=O)N[C@H]1[C@@H](C(=O)Nc2ccc(F)c(C(F)(F)F)c2)[C@H]2CC[C@@H]1/C2=C\C1CC1` (some centres unmarked) [Example 327], a half-maximal response (EC50) required 26.1 nM. The value for `COc1ccc(COCC2CC2(F)F)cc1C(=O)N[C@@H]1C2CCC(/C2=C/C2CC2)[C@@H]1C(=O)Nc1ccc(F)c(C(F)(F)F)c1` (stereo partly drawn) [Example 15, (2S,3R,7Z)-7-(cyclopropylmethyli-dene)-3-(5-{[(2,2-difluorocyclopropyl)methoxy]methyl}-2-methoxybenzamido)-N-[4-fluoro-3-(trifluoromethyl)phe-nyl]bicyclo[2.2.1]hept-ane-2-carboxamide] was 36 nM; that for `COc1ccc(/C=C/C(=O)N2CCO[C@@H](CO)C2)cc1C(=O)N[C@H]1[C@@H](C(=O)Nc2ccc(F)c(C(F)(F)F)c2)[C@H]2CC[C@@H]1/C2=C\C1CC1` [Example 307, (1R,2S,3R,4R,7Z)-7-(cyclopropyl-methylidene)-N-[4-fluoro-3-(trifluoromethyl)phenyl]-3-{5-[(1E)-3-[(2R)-2-(hydroxymethyl)morpholin-4-yl]-3-oxoprop-1-en-1-yl]-2-methoxybenzamido} bicyclo[2.2.1]heptane-2-carboxamide] was 18.5 nM; that for `COc1cc(COC2(CO)CC2)ccc1C(=O)N[C@H]1[C@@H](C(=O)Nc2ccc(F)c(C(F)(F)F)c2)[C@H]2CC[C@@H]1/C2=C\C1CC1` [Example 14, (1R,2S,3R,4R,Z)-7-(cyclopropylmethylene)-N-(4-fluoro-3-(trifluoromethyl)phenyl)-3-(4-((1-(hydroxymethyl)cyclopropoxy)methyl)-2-methoxybenzamido) bicyclo[2.2.1]heptane-2-carboxamide] was 13 nM.
